The values below come from patent US20250049776A1, “AUTOPHAGY INDUCING COMPOUNDS AND USES THEREOF, IN PARTICULAR FOR A SYSTEMIC TREATMENT OF DISEASES AND CONDITIONS” (Samsara Therapeutics Inc., priority 2021, published 2025).

For this assay, the system named is Human osteosarcoma U20S cells. Put plainly: Assay to measure lysosome and autolysosome formation (acidic vesicle formation, LysoView/LysoTracker staining). Type of assay: cell-based. Conditions: for activation at 0.8 µM: Homo sapiens; for activation at 0.8 µM / Activity (percentage increase in acidic vesicle formation), Table 2b More preferred compounds: U2OS cells, concentration of 0.8 μM; for acidic vesicle formation relative to a DMSO-treated control / increase in acidic vesicle formation: U20S cells; for acidic vesicle formation relative to a DMSO-treated control: concentration of 10 μM, 24 hours; for increase in acidic vesicle formation: relative to DMSO-treated control (10 μM). As to the method: Lysosomes play a fundamental role in the autophagic pathway by fusing with autophagosomes and creating ‘autolysosomes’ in order to digest their contents. Stimulation of lysosome and autolysosome formation by a compound is indicative of a stimulation of autophagy. The ability of compounds to stimulate lysosome and autolysosome formation, and thus autophagy, in live cells was assessed via fluorescent microscopy using various fluorescent stains for labelling and tracking acidic organelles (including lysosomes and autolysosomes) such as: LysoView™ 650 (70059 and 70059-T, Biotium), LysoViewTM633 (70058 and 70058-T, Biotium) and LysoTracker™ Deep Red (L12492, ThermoFisher Scientific). The cellular phenotype was quantitatively assessed for the induction of acidic vesicle formation and compared to a non-treated control, thus providing a measure of the ability of the compound under investigation to stimulate autophagy.
Representative procedure using LysoView™633 dye or LysoTracker™ Deep Red dye: Human osteosarcoma U20S cells (40,000 cells/well) were seeded in a 24 well glass bottom plate (Sensoplate, Greiner Bio-One) and were incubated overnight in a humidified atmosphere at 37° C. and 5% CO2. Cells were grown in DMEM (Gibco) supplemented with 10% Fetal Bovine Serum (FBS) and 100 units/ml penicillin and 100 μg/ml streptomycin (Invitrogen). After the attachment period, cells were treated with different compounds of interest (at various concentrations in DMSO) or DMSO (non-treated control) in cell culture medium and were incubated for 24 hours. Compound-containing medium was removed and cells were incubated with pre-warmed cell culture medium containing 1× LysoView™ 633 (70058 and 70058-T, Biotium) or 50 nM LysoTracker™ Deep Red (L12492, ThermoFisher Scientific) for 45 minutes at 37° C. Finally, cell nuclei were stained for 10 minutes using Hoechst 33342 (1 μg/mL) and then the medium was replaced with fresh medium. The 24 well plate was then fitted into a heated stage on the microscope and cells maintained at 37° C. Images were captured using appropriate filter set for Cy5 and DAPI detection with the EVOS M7000 Microscope (ThermoFisher Scientific). The cellular phenotype was visually assessed for the induction of acidic vesicle formation relative to the non-treated control; multiple images were acquired and analyzed using ImageJ or Cell Profiler.

The mark [1] stands for this setting: read-out: Activity (percentage increase in acidic vesicle formation over the DMSO-treated control), Table 2.
Setting [2] is: read-out: Activity (percentage increase in acidic vesicle formation), Table 2a Preferred compounds.

Where two headings read alike, the source gives them in different places.

`CCCN(C(=O)c1csc(-c2ccc(-c3ccccc3)s2)n1)C1CCNC1` (centres unmarked) [Compound 122, 2-(5-phenylthiophen-2-yl)-N-propyl-N-(pyrrolidin-3-yl)-1,3-thiazole-4-carboxamide]: the “Activity (percentage increase in acidic vesicle formation), Table 2b More preferred compounds” value is recorded as “++++ (a percentage increase in acidic vesicle of greater than 100% over the DMSO-treated control)”. Besides, under setting [1], the activation at 0.8 µM is > 100%. In addition, the activation at 0.8 µM under setting [2] lay within 50 to 100%.

In the case of `CCCN(C(=O)c1csc(-c2cnc(-c3ccccc3)o2)n1)[C@H]1CCNC1` [Compound 35, 2-(2-phenyl-1,3-oxazol-5-yl)-N-propyl-N-[(3S)-pyrrolidin-3-yl]-1,3-thiazole-4-carboxamide], under setting [1], the activation at 0.8 µM is 10 to 30%.

`CC(C)N(C(=O)c1csc(-c2cnn(-c3ccncc3)c2)n1)C1CCNCC1` [Compound 322, N-(piperidin-4-yl)-N-(propan-2-yl)-2-[1-(pyridin-4-yl)-1H-pyrazol-4-yl]-1,3-thiazole-4-carboxamide]: the “acidic vesicle formation relative to a DMSO-treated control” value was “only a slight increase” and the “increase in acidic vesicle formation” value is on record as “only a slight increase”.

As to `N[C@H]1CCCN(C(=O)c2csc(-c3cnn(-c4ccccc4)c3)n2)C1` [Compound 142, (3S)-1-[2-(1-phenyl-1H-pyrazol-4-yl)-1,3-thiazole-4-carbonyl]piperidin-3-amine], under setting [1], the activation at 0.8 µM was 10 to 30%.

Turning to `CCCN(C(=O)c1csc(-c2cnn(-c3ccccc3)c2)c1)C1CCNC1` (centres unmarked) [Compound 130, 5-(1-phenyl-1H-pyrazol-4-yl)-N-propyl-N-(pyrrolidin-3-yl)thiophene-3-carboxamide], under setting [1], the activation at 0.8 µM fell in the range of 10 to 30%.

Take `CCCN(C(=O)c1csc(-c2cnn(-c3cccc(C)c3)c2)n1)[C@@H]1CCNC1` [Compound 29, 2-[1-(3-methylphenyl)-1H-pyrazol-4-yl]-N-propyl-N-[(3R)-pyrrolidin-3-yl]-1,3-thiazole-4-carboxamide]: the activation at 0.8 µM under setting [1] was in the range of 30 to 50%.

`N[C@@H]1CCCN(C(=O)c2csc(-c3cnn(-c4ccccc4)c3)n2)C1` [Compound 143, (3R)-1-[2-(1-phenyl-1H-pyrazol-4-yl)-1,3-thiazole-4-carbonyl]piperidin-3-amine]: the activation at 0.8 µM under setting [1] lay within 10 to 30%.

Turning to `CCCN(C(=O)c1csc(-c2cnn(-c3cccc(OC(F)(F)F)c3)c2)n1)[C@H]1CCNC1` [Compound 25, N-propyl-N-[(3S)-pyrrolidin-3-yl]-2-{1-[3-(trifluoromethoxy)phenyl]-1H-pyrazol-4-yl}-1,3-thiazole-4-carboxamide], the activation at 0.8 µM under setting [1] was 10 to 30%.

Take `CCCN(C(=O)c1csc(-c2cnn(-c3ccc(Cl)cc3)c2)n1)[C@@H]1CCNC1` [Compound 41, 2-[1-(4-chlorophenyl)-1H-pyrazol-4-yl]-N-propyl-N-[(3R)-pyrrolidin-3-yl]-1,3-thiazole-4-carboxamide]: the activation at 0.8 µM under setting [1] was in the range of 10 to 30%.

For `CC(C)N(C(=O)c1csc(-c2cnn(-c3ccccc3)c2)n1)C1C2CNCC1C2` (centres unmarked) [Compound 317, N-{3-azabicyclo[3.1.1]heptan-6-yl}-2-(1-phenyl-1H-pyrazol-4-yl)-N-(propan-2-yl)-1,3-thiazole-4-carboxamide], the “acidic vesicle formation relative to a DMSO-treated control” value is “only a slight increase” and the “increase in acidic vesicle formation” value is “only a slight increase”.

For `CC(C)N(C(=O)c1csc(-c2cnn(-c3ncccn3)c2)n1)C1CCNCC1` [Compound 329, N-(piperidin-4-yl)-N-(propan-2-yl)-2-[1-(pyrimidin-2-yl)-1H-pyrazol-4-yl]-1,3-thiazole-4-carboxamide], the “increase in acidic vesicle formation” value was “only a slight increase”.

In the case of `CCCN(C(=O)c1csc(-c2cnn(-c3cccc(Cl)c3)c2)n1)[C@H]1CCNC1` [Compound 31, 2-[1-(3-chlorophenyl)-1H-pyrazol-4-yl]-N-propyl-N-[(3S)-pyrrolidin-3-yl]-1,3-thiazole-4-carboxamide], the activation at 0.8 µM under setting [1] is 10 to 30%.

Regarding `CCCN(C(=O)c1csc(-c2cnn(-c3cccc(OC)c3)c2)n1)[C@H]1CCNC1` [Compound 51, 2-[1-(3-methoxyphenyl)-1H-pyrazol-4-yl]-N-propyl-N-[(3S)-pyrrolidin-3-yl]-1,3-thiazole-4-carboxamide], the activation at 0.8 µM under setting [1] lay in the range of 30 to 50%.

As for `Cc1ccccc1-n1cc(-c2nc(C(=O)N3CCC[C@@H]3CN)cs2)cn1` [Compound 86, 1-[(2R)-1-{2-[1-(2-methylphenyl)-1H-pyrazol-4-yl]-1,3-thiazole-4-carbonyl}pyrrolidin-2-yl]methanamine], the activation at 0.8 µM under setting [1] was 30 to 50%.

As for `CC(C)N(C(=O)c1csc(-c2cnn(-c3ccccc3)c2)n1)[C@@H]1CCNC1` [Compound 312, 2-(1-phenyl-1H-pyrazol-4-yl)-N-(propan-2-yl)-N-[(3R)-pyrrolidin-3-yl]-1,3-thiazole-4-carboxamide], under setting [1], the activation at 0.8 µM fell in the range of 50 to 100%.

In the case of `CCCN(C(=O)c1csc(-c2cnn(-c3cccc(OC)c3)c2)n1)[C@@H]1CCNC1` [Compound 56, 2-[1-(3-methoxyphenyl)-1H-pyrazol-4-yl]-N-propyl-N-[(3R)-pyrrolidin-3-yl]-1,3-thiazole-4-carboxamide], the activation at 0.8 µM under setting [1] was in the range of 10 to 30%.

As to `CC(C)N(C(=O)c1csc(-c2cnn(-c3ccccc3)c2)n1)C1C[C@H]2C[C@@H]1CN2` (stereo partly drawn) [Compound 316, N-[(1R,4R)-2-azabicyclo[2.2.1]heptan-5-yl]-2-(1-phenyl-1H-pyrazol-4-yl)-N-(propan-2-yl)-1,3-thiazole-4-carboxamide], the activation at 0.8 µM under setting [1] is 30 to 50%.

Take `CCCN(C(=O)c1csc(-c2cnn(-c3ccccn3)c2)n1)[C@@H]1CCNC1` [Compound 44, N-propyl-2-[1-(pyridin-2-yl)-1H-pyrazol-4-yl]-N-[(3R)-pyrrolidin-3-yl]-1,3-thiazole-4-carboxamide]: the activation at 0.8 µM under setting [1] lay in the range of 10 to 30%.

Turning to `CCCN(C(=O)c1cc(-c2cnn(-c3ccccc3)c2)c[nH]1)C1CCNC1` (centres unmarked) [Compound 123, 4-(1-phenyl-1H-pyrazol-4-yl)-N-propyl-N-(pyrrolidin-3-yl)-1H-pyrrole-2-carboxamide], the “Activity (percentage increase in acidic vesicle formation), Table 2b More preferred compounds” value was “++++ (a percentage increase in acidic vesicle of greater than 100% over the DMSO-treated control)”. Also, the activation at 0.8 µM under setting [1] is > 100%. The activation at 0.8 µM under setting [2] lay in the range of 50 to 100%.

`O=C(NCC1CCNCC1)c1cc(-c2cnn(-c3ccccc3)c2)cs1` [Compound 111, 4-(1-phenyl-1H-pyrazol-4-yl)-N-[(piperidin-4-yl)methyl]thiophene-2-carboxamide]: under setting [1], the activation at 0.8 µM lay within 30 to 50%.

With `CCCN(C(=O)c1csc(-c2cnn(-c3ccc(OC(F)(F)F)cc3)c2)n1)[C@H]1CCNC1` [Compound 45, N-propyl-N-[(3S)-pyrrolidin-3-yl]-2-{1-[4-(trifluoromethoxy)phenyl]-1H-pyrazol-4-yl}-1,3-thiazole-4-carboxamide], the activation at 0.8 µM under setting [1] lay within 30 to 50%.

Regarding `CCCN(C(=O)c1csc(-c2cnn(-c3ccncc3)c2)n1)[C@@H]1CCNC1` [Compound 23, N-propyl-2-[1-(pyridin-4-yl)-1H-pyrazol-4-yl]-N-[(3R)-pyrrolidin-3-yl]-1,3-thiazole-4-carboxamide], under setting [1], the activation at 0.8 µM was in the range of 10 to 30%.

For `NC[C@H]1CCCN1C(=O)c1csc(-c2cnn(-c3ccc(C(F)(F)F)cc3)c2)n1` [Compound 76, 1-[(2R)-1-(2-{1-[4-(trifluoromethyl)phenyl]-1H-pyrazol-4-yl}-1,3-thiazole-4-carbonyl)pyrrolidin-2-yl]methanamine], the activation at 0.8 µM under setting [1] lay within 10 to 30%.
